The structures appear in SMILES notation. pIC50: −log10 of the molar value.

This experiment addresses T1, human VR1 (Homo sapiens, UniProt Q8NER1).
T1 construct: expressed in transfected cells; host or cells: HEK293
As to the kind of experiment: Human VR1 functional assay (FLIPR intracellular Ca2+). The settings on record: for pIC50: antagonism of capsaicin-induced Ca2+ increase, read-out: h IC50; for inhibition at 5 µM: read-out: h % I (5 μM); for inhibition at 1 µM: read-out: h % I (1 μM). The format is cell-based. How it is done: The functional activity of the test compounds was determined by measuring changes in intracellular calcium concentration using a Ca^2+-sensitive fluorescent dye and FLIPR™ technology. Increases in Ca^2+ concentration were readily detected upon challenge with capsaicin. HEK293 Cells expressing human VR1 were grown on poly-D-lysine coated 384 well black-walled plates (BD 354663) and 1 day later loaded with Calcium 3 Dye for 35 min at 37 C, 5% CO2 and then for 25 min at room temperature, and subsequently tested for agonist-induced increases in intracellular Ca^2+ levels using FLIPR™ technology. Cells were challenged with test compounds (at varying concentrations, which are indicated in parentheses in the heading of the table below) and intracellular Ca^2+ was measured for 5 min prior to the addition of capsaicin to all wells to achieve a final concentration of eliciting an approximate 80% maximal response ([…]). EC50 or IC50 values were determined from dose-response studies. Curves were generated using the average of quadruplicate wells for each data point.

The mark [1] stands for this setting: inhibition of capsaicin response.

T1 sequence (Q8NER1 whole entry): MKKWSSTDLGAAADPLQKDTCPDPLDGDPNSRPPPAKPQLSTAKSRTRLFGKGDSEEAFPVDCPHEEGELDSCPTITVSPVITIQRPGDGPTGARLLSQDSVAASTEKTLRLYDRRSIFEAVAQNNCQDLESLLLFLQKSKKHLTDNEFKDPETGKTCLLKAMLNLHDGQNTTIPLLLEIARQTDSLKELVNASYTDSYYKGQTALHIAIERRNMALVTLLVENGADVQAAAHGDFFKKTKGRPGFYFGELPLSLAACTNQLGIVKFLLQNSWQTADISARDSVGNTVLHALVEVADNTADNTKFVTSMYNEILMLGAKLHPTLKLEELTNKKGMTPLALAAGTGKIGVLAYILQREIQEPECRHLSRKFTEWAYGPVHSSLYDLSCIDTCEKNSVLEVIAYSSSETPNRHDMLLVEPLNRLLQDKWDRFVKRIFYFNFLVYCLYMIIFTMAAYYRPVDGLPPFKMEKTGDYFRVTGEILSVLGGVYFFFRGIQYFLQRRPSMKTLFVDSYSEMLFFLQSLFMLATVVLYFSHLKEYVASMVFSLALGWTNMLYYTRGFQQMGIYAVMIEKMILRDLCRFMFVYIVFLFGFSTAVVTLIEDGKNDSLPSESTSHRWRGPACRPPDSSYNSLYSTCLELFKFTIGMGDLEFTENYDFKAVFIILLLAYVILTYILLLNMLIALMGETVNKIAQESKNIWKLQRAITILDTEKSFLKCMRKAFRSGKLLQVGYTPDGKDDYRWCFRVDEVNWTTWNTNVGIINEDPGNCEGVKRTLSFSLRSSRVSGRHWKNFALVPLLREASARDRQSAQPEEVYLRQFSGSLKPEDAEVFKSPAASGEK

Consider `CC(C)(C)c1ccc(CCC(=O)Nc2ccc(-n3ccnc3)c(C(F)(F)F)c2)cc1` [Cpd 264], for which, under setting [1], the “h % I (1 μM)” value came to 24% and the “h % I (5 μM)” value stood at 48%.

As a reminder, the pIC50 is the negative decadic logarithm of the IC50, by convention in mol/L. Regarding `O=C(CCc1ccc(C(F)(F)F)cc1)Nc1cnc(-c2ccccc2O)c(C(F)(F)F)c1` [Cpd 213], the pIC50 is 7.19. For the same molecule, the inhibition at 5 µM under setting [1] is 100%.

Regarding `CC(C)(C)c1ccc(CCC(=O)Nc2cnc(-c3ccc(O)cc3)cn2)cc1` [Cpd 185], under setting [1], the “h % I (1 μM)” value is 1% and the “h % I (5 μM)” value turned out to be 24%.

In the case of `Cc1cn(-c2ccc(NC(=O)CCc3ccc(SC(F)(F)F)cc3)cc2C(F)(F)F)cn1` [Cpd 219], the pIC50 was 7.00. Further, under setting [1], the inhibition at 1 µM came out at 100%.

In the case of `Cc1cc(NC(=O)CCc2ccc(C(F)(F)F)cn2)cnc1-n1cnc(Cl)c1Cl` [Cpd 278], the “h % I (1 μM)” value under setting [1] amounted to 36%.

As for `CC(C)(C)c1ccc(CCC(=O)Nc2cnc(-c3ccncc3)cn2)cc1` [Cpd 188], under setting [1], the “h % I (1 μM)” value came to 4% and the “h % I (5 μM)” value is reported as 33%.

For `O=C(CCc1ccc([S+]([O-])C(F)(F)F)cc1)Nc1ccc(-n2cnc(Cl)c2Cl)c(C(F)(F)F)c1` (stereo not drawn) [Cpd 244], the pIC50 is 6.34. For the same molecule, the inhibition at 1 µM under setting [1] came out at 85%.

For the molecule `CC(C)(C)c1ccc(CCC(=O)Nc2ccccc2-c2ccccc2O)cc1` [Cpd 8], the “h % I (10 μM)” value (inhibition of capsaicin response, 10 μM) amounted to 45%.

Regarding `Cc1cn(-c2ccc(NC(=O)CCc3ccc(S(=O)(=O)C(F)(F)F)cc3)cc2C(F)(F)F)cn1` [Cpd 209], the negative logarithm of the IC50 (pIC50) was 7.32. Also, the inhibition at 1 µM under setting [1] is 100%.

As to `CC(C)(C)c1ccc(CCC(=O)Nc2ccc(-c3ccccn3)c(F)c2)cc1` [Cpd 173], the pIC50 was 6.41.

On to `O=C(CCc1ccc(F)cc1)Nc1ccc(-n2cnc(Cl)c2Cl)c(C(F)(F)F)c1` [Cpd 243], for which the negative logarithm of the IC50 (pIC50) was 6.36. For the same molecule, the inhibition at 1 µM under setting [1] is 92%.

With `Cc1cc(NC(=O)CCc2ccc(C(C)(C)C)cc2)cc(C)c1-c1ccc(CO)cc1` [Cpd 88], the pIC50 is 5.77. Further, under setting [1], the inhibition at 5 µM was 84%.

`O=C(CCc1ccc(F)c(F)c1)Nc1ccc(-n2ccnc2)c(C(F)(F)F)c1` [Cpd 256]: the inhibition at 1 µM under setting [1] is 42%.

For `COC(=O)c1cn(-c2ccc(NC(=O)CCc3ccc(C(F)(F)F)cc3)cc2C(F)(F)F)cn1` [Cpd 271], under setting [1], the “h % I (1 μM)” value is on record as 26%.

Turning to `O=C(CCc1ccc(C(F)(F)F)cc1)Nc1ccc(-c2noc(C(F)(F)F)n2)c(C(F)(F)F)c1` [Cpd 265, 3-(4-Trifluoromethyl-phenyl)-N-[3-trifluoromethyl-4-(5-trifluoromethyl-[1,2,4]oxadiazol-3-yl)-phenyl]-propionamide], under setting [1], the inhibition at 1 µM was 18% and the inhibition at 5 µM was determined as 63%.

As for `Cc1cc(NC(=O)CCc2ccc(C(C)(C)C)cc2)cc(C)c1-c1ccc(O)cc1` [Cpd 87], the pIC50 was 6.07. The inhibition at 5 µM under setting [1] turned out to be 92%.

On to `Cc1cc(NC(=O)/C=C/c2ccc([S+]([O-])C(F)(F)F)cc2)cnc1-n1cnc(Cl)c1Cl` (stereo not drawn) [Cpd 274], for which the “h % I (1 μM)” value under setting [1] came out at 18%.

On to `Cc1cc(NC(=O)CCc2ccc(C(C)(C)C)cc2)cnc1-c1ccc(CO)cc1` [Cpd 163, 3-(4-tert-butyl-phenyl)-N-[6-(4-hydroxymethyl-phenyl)-5-methyl-pyridin-3-yl]-propionamide], for which the pIC50 was 7.01. The inhibition at 5 µM under setting [1] was found to be 100%.

Turning to `Cc1cc(NC(=O)CCc2ccc(C(F)(F)F)cc2)cnc1-n1ccnc1` [Cpd 247], the negative-log IC50 (pIC50) is 6.26. Further, the inhibition at 5 µM under setting [1] was 97%.

Turning to `Cc1cc(NC(=O)CCc2ccc(SC(F)(F)F)cc2)cnc1-n1cnc(Cl)c1Cl`, the “h % I (1 μM)” value under setting [1] is given as 41%.

In the case of `Cc1cc(NC(=O)CCc2ccc(C(C)(C)C)cc2)ccc1-c1ccccn1` [Cpd 172], the pIC50 is 6.85.

`Cc1cc(NC(=O)CCc2ccc(C(C)(C)C)cc2)cc(C)c1-c1ccncc1` [Cpd 167, 3-(4-tert-butyl-phenyl)-N-(3,5-dimethyl-4-pyridin-4-yl-phenyl)-propionamide]: the negative-log IC50 (pIC50) was 6.74. Moreover, under setting [1], the inhibition at 5 µM was found to be 93%.
